Tests used:
rat receptor Mas = target: T1, rat receptor Mas (Rattus norvegicus, UniProt P12526); experiment: Nitric oxide production in CHO cells transfected with the Mas receptor (DAF-FM fluorescence); type: cell-based; settings: 10^−7 mol/L, 60 minutes
T1 construct: expressed in transfected cells
T1 sequence (P12526 1-324): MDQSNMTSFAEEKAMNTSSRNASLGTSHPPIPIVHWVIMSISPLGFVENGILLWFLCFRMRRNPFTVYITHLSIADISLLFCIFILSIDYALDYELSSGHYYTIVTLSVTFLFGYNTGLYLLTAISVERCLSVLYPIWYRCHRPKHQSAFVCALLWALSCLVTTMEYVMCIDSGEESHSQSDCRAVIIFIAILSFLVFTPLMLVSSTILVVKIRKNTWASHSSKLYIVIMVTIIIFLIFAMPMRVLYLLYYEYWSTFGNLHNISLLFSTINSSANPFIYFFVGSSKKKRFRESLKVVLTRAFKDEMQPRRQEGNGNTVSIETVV
Method: Chinese hamster ovary cells (CHO) were stably transfected with the cDNA of the rat receptor Mas driven by a cytomegalovirus promoter and selected using neomycin. Nitric oxide production was monitored using the indicator NO 4-amino-5-methylamino-2′,7′-difluorofluorescent diacetate.
Confluent CHO cells transfected with the Mas receptor and cultured in 6-well plates were preincubated in 1.5 ml of serum free medium (DMEM) containing DAF-FM (least 5 uM) and supplemented with 0.2% BSA, 0.005% bacitracin, […] phenylmethylsulfonyl fluoride and […] 1, 10-phenanthroline at 37° C. in a humidified incubator in an atmosphere with 5% CO2. After 30 minutes, cells were washed and incubated with arg0-Ang-(1-7) and Ang-(1-7) at 10^−7 mol/L for 60 minutes. Subsequently, the cells were washed twice and the slides were mounted for confocal microscopy for evaluation.
Relative fluorescence measurements were made using a Zeiss LSM 510 laser scanning META confocal microscope excited at 488 nm with an argon-ion laser (objective lens immersion oil, 63×).
Results are presented as mean±SEM. One-way analysis of variance with Bonferroni post-test for multiple comparisons was used to compare the concentration-response curve in CHO cells transfected with the receptor Mas. All statistical analyses were considered significant when p<0.05.

[1] = tested on: mesenteric artery rings of SHR; experiment: Vasorelaxation in mesenteric artery rings of SHR; design: species or system rat; settings: expressed as percentage of decrease of phenylephrine contraction
Method: Rings (2.0 mm) of mesenteric artery (2nd and/or 3rd branches) in spontaneously hypertensive rats (SHR), free from adipose and connective tissue, were maintained in a gasified solution (95% 02 and 5% CO2) of Krebs-Hanseleit to 37° C. After a 15 minute stabilization period, the artery was stretched, gradually, to a resting tension considered optimal with respect to its inner diameter. In each arterial segment, the voltage/diameter was calculated by the internal circumference which corresponds to a transmural pressure of 100 mmHg for a relaxed vessel in situ (IC100) using software specific for standardization resistance arteries. For the experiments, the arteries were maintained with an internal circumference, IC1, calculated using the formula IC1=0.90×IC100, in which the development of strength is maximum, as previously described by Mulvany and Halpern (1977). The effective luminal diameter was determined according to the I1=IC1/π equation. The diameter of the vessels used ranged from 200 to 300 μm.
The arteries were stimulated with a high concentration of potassium chloride (KCl 120 mmol/1), in order to assess their functional integrity. […]
The presence of functional endothelium was assessed by the ability of acetylcholine [ACh] […] The mechanical activity was recorded isometrically using a myograph, and this was connected to a system for data acquisition and a computer. […]

protein kinase B (AKT) = experiment: Activation (Ser473 phosphorylation) of AKT in neonatal rat cardiomyocytes, Western blot; type: cell-based; settings: cardiomyocyte cells, 10^−9 mol/L, five minutes
Method: Wistar neonatal rat cardiomyocytes were cultured in regular growth medium consisting of DEMEM medium supplemented with 10% horse serum, 5% fetal bovine serum, 1% penicillin/streptomycin and 0.1% fibroblast inhibitor. The cells were maintained in serum free medium for three hours before the start of treatment. The study was carried out acutely, for five minutes using a concentration of 10^−9 mol/L of the following drugs diluted in culture medium: Ang-(1-7), arg0-Ang-(1-7) and insulin. Cells incubated with culture medium only were used as control group.
Total protein was isolated from cardiomyocytes cells with lysis buffer containing protease inhibitors cocktail (Days-Peixoto et al., Hypertension 52: 542-548, 2008). Sixty micrograms of total protein was separated by electrophoresis, transferred to a nitrocellulose membrane, blocked with 5% skimmed milk powder diluted in Tris-saline containing 0.1% Tween, and finally incubated overnight with anti-AKT polyclonal antibody (1:1000), anti-Ser473 phospho-Akt (1:600), anti-glyceraldehyde-3-phosphate dehydrogenase (GAPDH—1:1000). Subsequently, the membranes were incubated with fluorescently labeled secondary antibody (1:10000), followed by identification and quantitation by the Odyssey program (LI-COR).
The results are presented as mean+E.PM. […]

[2] = tested on: Human alveolar adenocarcinoma cells (A549); experiment: Anti-proliferative effect in A549 cells (AlamarBlue cell viability); type: cell-based; settings: 1×10^−4 to 2×10^−7M, 48 hours
Method: Human alveolar adenocarcinoma cells (A549), cultured in DEMEM supplemented with 10% fetal bovine serum and 1% penicillin/streptomycin, were distributed into 96 wells plate at the density of 2×10^4 cells/well. After 48 hours of incubation in an incubator at 37° C., the arg0-angiotensin-(1-7) and angiotensin (1-7) peptides were added to the wells and serially diluted (1×10^−4 to 2×10^−7M) in culture medium free of fetal bovine serum. Wells not plated with cells and wells with cells but stimulated only with culture medium were used as controls. The stimulus, which lasted 48 hours, was followed by the addition of AlamarBlue reagent (Invitrogen), used to detect cell viability.

- nitric oxide production (rat receptor Mas): stimulated nitric oxide production
Substance: Asp-Arg-Val-Tyr-Ile-His-Pro [Ang-(1-7)]
- Emax of vasorelaxation [1]: 28%
- activation of protein kinase B (AKT) (protein kinase B (AKT)): triggered the activation of protein kinase B (AKT)
- anti-proliferative effect [2]: anti-proliferative effect

From patent publication US20160122387A1, “Angiotensin Peptide and Pharmaceutical Compositions for Disease Treatment” (UNIVERSIDADE FEDERAL DE MINAS GERAIS - UFMG, priority 2012, published 2016)
